Columns and labels:
[1] = Activity against CMP-KDO synthetase (CKS) from Escherichia coli D21,the compound gave rise to a strongly interfering absorption in the thiobarbituric acid assay
[2] = Activity against CMP-KDO synthetase-KDO-lipid A transferase (CKS-KLT) assay from Escherichia coli D21
[3] = Activity against CMP-KDO synthetase (CKS) from Escherichia coli D21
[4] = Activity against CMP-KDO synthetase (CKS) from Escherichia coli D21, the compound gave rise to a strongly interfering absorption in the thiobarbituric acid assay

Row | Structure (SMILES) | IC50 [1] | IC50 [2] [µM] | IC50 [3] [µM] | IC50 [4]
1 | NC[C@@H](O)[C@H]1O[C@H](C(=O)O)C[C@@H](O)[C@H]1O | Strongly interfering absorption | 7.4 |  | 
2 | O=C(O)[C@@H]1C[C@@H](O)[C@@H](O)[C@@H]([C@H](O)CO)O1 |  | 10 | 18 | 
3 | O=C(O)[C@@H]1C[C@@H](O)[C@@H](O)[C@@H]([C@H](O)CF)O1 |  | 4.8 | 24 | 
4 | N.[N-]=[N+]=NC[C@@H](O)[C@H]1O[C@H](C(=O)O)C[C@@H](O)[C@H]1O |  | 80 |  | Strongly interfering absorption
5 | N.O=C(O)[C@@H]1C[C@@H](O)[C@@H](O)[C@@H]([C@H](O)CS)O1 | Strongly interfering absorption | 17 |  | 
6 | C[C@@H](O)[C@H]1O[C@H](C(=O)O)C[C@@H](O)[C@H]1O |  | 6.8 | 22 | 
